Non-standard residues stand in square brackets, D forms with d. Aib = CC(C)(N)C(=O)O

Assay [1] relates to SKOV-3 and primary EOC cells. Kind of assay: Cell adhesion to vitronectin, SKOV-3 and primary EOC cells (summary statement). It counts as cell-based, human. Conditions: pre-exposure. Here is the method: Adhesion assays were performed using 24 multi-well plates coated with 1% BSA, 5 μg mL vitronectin (Vn), 5 μg mL fibronectin (Fn), 5 μg mL laminin (Lm) or 15 μg mL collagen (Coll) diluted in serum-free medium. Sub-confluent cells were harvested by a mild trypsinization, incubated with 10% FBS / DMEM for 1 h at 37 °C, 5% CO2, acid treated with a buffer containing 50 mM glycin-HC1, 0.1 M NaCl, pH 3 for 4 min at 22 °C, to remove receptor-bound ligands, and counted. Viable cells (2 × 10^5 cells per well) were plated in serum-free medium, in the absence or presence of 2 μg/mL R3 mAb recognizing the DI uPAR domain, 2 μg/mL399 anti-uPAR (American Diagnostica), 2 μg/mL anti-uPAR84-95 (PRIMM), 2 μg/mL anti-α-tubulin (Cell Signaling) Abs or 10 nM RI-3, and allowed to adhere for 2 h at 37 °C, 5% CO2. […] At the end of the assay, adherent cells were removed with 0.05% trypsin, and counted. The number of adherent cells was expressed as a percentage of the basal cell adhesion (CTRL). The experiments were performed at least three times in triplicate.
This assay was performed using E-16-well plates and the xCELLigence Real Time Cell Analysis technology. […] The impedance value of each well was automatically monitored in real-time for at least 2 h and expressed as a cell index value. […]

Assay [2] concerns FPR1. The conditions noted are these: FPR1 overexpressing rat basophilic leukaemia RBL-2H3/ETFR cells; stated also as conclusion for primary EOC cells; ref [38]; cited from earlier work. From the text:
In order to obtain primary cultures of EOC cells, representative fragments of tissue samples were fragmented and cells recovered, as described in the Methods. By enzymatic digestion of a HGSC tissue sample (patient #5), a primary cell culture expressing high levels of both uPAR and FPR1 on cell surface as shown by IHC, was obtained (Figs. 4 and 5a). Subsequent sub-cloning of isolated cell clusters (Fig. 5b) followed by five passages allowed us to obtain an adherent, homogeneous, CD326 positive cell population. These EOC cells express a considerable amount of both uPAR and FPR1 as shown by West ...

For “Ac-[dY][dR][Aib][dR]-NH2 [RI-3, retro-inverso peptide, uPAR/FPR1 antagonist]”, in assay [1], the “extent of cell adhesion to vitronectin (abstract)” value is recorded as “decreases to basal level”. The “FPR1 binding and blockade of internalization and function” value in assay [2] was “binds to FPR1 blocking its internalization and function”.

The values above are taken from article PMC6839174, “Targeting the Formyl Peptide Receptor type 1 to prevent the adhesion of ovarian cancer cells onto mesothelium and subsequent invasion” (Journal of Experimental & Clinical Cancer Research : CR, 2019).
